The values below are quoted from earlier work in US9910020B1, “Methods and articles for identifying objects using encapsulated perfluorocarbon tracers” (Copilot Ventures Fund III LLC, priority 2005, dated 2018).

Structures are written as SMILES.

The subject of series [1] is benzphetamine-N-demethylase. To be noted: following PFD treatment, rats.
Series [2] deals with cytochrome P-450 IIA1 (a.k.a. cytochrome P450b). To be noted: following PFD treatment, rats; as with phenobarbital induction.
The subject of a further series is aldrin-epoxidase. As to conditions: following PFD treatment, rats.
The test system of another series is cytochrome P450 IV. As to conditions: following PFD treatment, rats; induced by fatty acids and perfluoronated fatty acids.
A further series has as its system cytochrome P-450. As to conditions: PFD given to rats; hepatic metabolizing enzymes.
The test system of series [3] is cytochrome P-450 IA1 and IA1. As to conditions: following PFD treatment, rats; induced by 3-methylcholanthrene-type inducers.
Series [4] deals with cytochrome P-450 IIA2 (a.k.a. cytochrome P450e). As to conditions: following PFD treatment, rats; as with phenobarbital induction.

On to `FC1(F)C(F)(F)C(F)(F)C2(F)C(F)(F)C(F)(F)C(F)(F)C(F)(F)C2(F)C1(F)F` (stereo not shown) [PFD, perfluorodecalin], for which, in series [1], the “activity of benzphetamine-N-demethylase” value is “increased”. Besides, the “activity of cytochrome P-450 IIA1, increase” value in series [2] was “approximately two-fold”. Moreover, the activity of aldrin-epoxidase result with aldrin-epoxidase is “increased”. Also, in the series on cytochrome P450 IV, the “activity of cytochrome P450 IV” value is given as “unaffected”. Further, the “induction of cytochrome P-450” value in the series with cytochrome P-450 was “induce cytochrome P-450 in a manner similar to phenobarbital”. Moreover, the “activities of cytochrome P-450 IA1 and IA1” value in series [3] was “unaffected”. In series [4], the “activity of cytochrome P-450 IIA2, increase” value is given as “approximately two-fold”.
